From patent US10927139B2, “Chemically cleavable group” (Tagworks Pharmaceuticals B.V., priority 2012, dated 2021)

Tests used:
[1] = Tetrazine-induced doxorubicin release from Axial-TCO-1-Doxorubicin in serum; design: species or system mouse; conditions: 10 equiv. tetrazine; 50% serum; 37° C.; LCMS at 4 h (n = 3)
Experimental: (§1) In a similar fashion as Example 3, the release of doxorubicin from TCO-1-doxorubucin as induced by tetrazines 1, 8, 9 in PBS/ACN and in serum was measured.
Serum experiments were conducted as follows:
TCO-1-doxorubucin (6.25×10^−8 mol) was dissolved in DMSO (0.050 mL), and PBS (0.475 mL) was added slowly in aliquots of 0.010 mL, followed by mouse serum (0.475 mL). A portion of this mixture (0.200 mL) was equilibrated at 37° C., and a solution of tetrazine (1.25×10^−7 mol) in DMSO (0.005 mL) was added, and the solution was thoroughly mixed and incubated at 37° C. in the dark for 4 h. Subsequently, cold MeCN (0.200 mL) was added, followed by centrifugation at 13400 rpm for 5 min. The supernatant was used for further analysis by HPLCMS/PDA analysis to determine the release of doxorubicin.

[2] = Tetrazine-induced doxorubicin release from Axial-TCO-1-Doxorubicin in PBS/MeCN (LCMS); conditions: 10 equiv. tetrazine; 25% MeCN in PBS; 37° C.; LCMS at 4 h (n = 3)
Experimental: PBS/MeCN (1 mL, 3/1), preheated at 37° C. and TCO-2-doxorubicin (10 μL of a 2.5 mM solution in DMSO, 1 eq.) were added to a preheated injection vial. Tetrazine (10 μL of a 25 mM solution in DMSO, 10 eq.) was added and the vial was vortexed. After incubation for 1 hour at 37° C., the vial was placed in LC-MS autosampler at 10° C. LC-MS analysis was performed using a 5% to 100% H2O/MeCN gradient over 11 minutes with a C18 reverse-phase column at 35° C. A control sample containing only TCO-2-doxorubicin (1 eq), as well as a sample containing only doxorubicin (1 eq.), was analyzed under the same conditions. All tetrazine containing samples were measured twice and the doxorubicin control sample was run after every three other samples during an overnight program. […] The calculated percentage of release was corrected when it was observed that the TCO-2-doxorubicin was not fully converted to inv-DA adduct(s). This was done by quantification of remaining dox-TCO, but full conversion was almost always observed. Peak areas (used for doxorubin quantification) were determined at λ=470-500 nm where characteristic doxorubicin absorption takes place and peak integration was done by hand.
as §1

[3] = Tetrazine-induced release of bead-bound radioactivity from streptavidin beads loaded with 125I-Rtx-TCO-biotin; conditions: beads with 21 μg ^125I-Rtx-TCO-biotin/mg; 1.5×10^3 eqs tetrazine; 1 hour at room temperature; gamma counting
Experimental: The bead suspension containing 21 μg ^125I-Rtx-TCO-biotin/mg beads (1 mL in PBS) was divided in two aliquots and reacted with a large excess of 3,6-dimethyl-1,2,4,5-tetrazine (8, 1.5×10^3 eqs with respect to Rtx) in DMSO (5 μL) or with DMSO alone (control) and incubated for 1 hour at room temperature on a roller bench. […] SDS-PAGE confirmed that the activity in the supernatant was due to the release of ^125I-Rtx from the beads (FIG. 4), thus confirming cleavage of the Rtx-TCO-biotin linker upon reaction with the 3,6-dimethyl-1,2,4,5-tetrazine.

Cc1nnc(C)nn1 [tetrazine 8, 3,6-dimethyl-1,2,4,5-tetrazine]
Doxorubicin release (%) from Axial-TCO-1-Doxorubicin, Serum [1]: 75 ± 4%
Doxorubicin release (%) from Axial-TCO-1-Doxorubicin, PBS/MeCN (3/1) [2]: 79 ± 3%
release of the bead-bound radioactivity [3]: 37%
